# Legend:
# CB1 receptors = biological target: T1, CB1 receptors (Mus musculus, UniProt P47746); experiment: in vivo test (binding ex vivo) in mice after intravenous and/or oral administration
# T1 construct: from tissue
# Experimental: The compounds according to the invention were tested in vivo (binding ex vivo) in mice after intravenous and/or oral administration, according to the experimental conditions described by Rinaldi-Carmona et al. (J. Pharmacol. Exp., 1998, 284, 644-650). […] By the oral route, compounds 2, 3, 4, 11 and 12 have an ED50 of between 1 and 20 mg/kg for the CB1 receptors.
# [1] = biological target: CB1 cannabinoid receptors (Homo sapiens, UniProt P21554); settings: cited from earlier work
# CB1 cannabinoid receptors, sequence (P21554 whole entry): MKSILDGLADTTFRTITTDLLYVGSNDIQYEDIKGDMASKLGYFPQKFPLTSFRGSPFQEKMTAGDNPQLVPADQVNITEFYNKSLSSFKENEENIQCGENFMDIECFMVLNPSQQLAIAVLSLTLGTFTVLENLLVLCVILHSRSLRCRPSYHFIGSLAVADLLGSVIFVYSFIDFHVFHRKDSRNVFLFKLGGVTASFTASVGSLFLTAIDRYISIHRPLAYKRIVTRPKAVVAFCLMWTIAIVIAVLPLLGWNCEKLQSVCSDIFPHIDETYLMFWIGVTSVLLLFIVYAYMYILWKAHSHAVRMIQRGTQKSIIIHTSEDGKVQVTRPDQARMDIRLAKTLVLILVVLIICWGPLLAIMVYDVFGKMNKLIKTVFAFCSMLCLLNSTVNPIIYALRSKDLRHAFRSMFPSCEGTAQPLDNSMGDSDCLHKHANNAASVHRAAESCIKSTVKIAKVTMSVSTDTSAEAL
# T1 sequence (P47746 whole entry): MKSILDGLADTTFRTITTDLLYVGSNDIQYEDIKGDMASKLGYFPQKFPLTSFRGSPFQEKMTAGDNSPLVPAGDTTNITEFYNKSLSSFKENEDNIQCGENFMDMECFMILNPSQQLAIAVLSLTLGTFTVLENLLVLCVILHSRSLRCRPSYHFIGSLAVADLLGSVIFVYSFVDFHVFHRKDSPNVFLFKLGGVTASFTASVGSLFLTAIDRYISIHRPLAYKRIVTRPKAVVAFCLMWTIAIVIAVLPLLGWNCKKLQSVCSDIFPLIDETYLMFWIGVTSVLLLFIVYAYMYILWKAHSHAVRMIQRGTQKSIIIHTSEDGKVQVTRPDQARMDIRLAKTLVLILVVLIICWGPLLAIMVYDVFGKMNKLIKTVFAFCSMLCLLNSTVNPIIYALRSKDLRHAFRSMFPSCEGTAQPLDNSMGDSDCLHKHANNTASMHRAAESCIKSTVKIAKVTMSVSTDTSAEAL
Structure (SMILES),ED50 (CB1 receptors) [mg/kg],properties for the CB1 cannabinoid receptors [1]
"CC(C)(C)NC(=O)c1nn(-c2ccc(Cl)cc2Cl)c(-c2ccc(Br)cc2)c1C#N [Compound 12, 5-(4-Bromophenyl)-4-cyano-1-(2,4-dichlorophenyl)-N-tert-butyl-1H-pyrazole-3-carboxamide]",1 to 20,
COc1ccc(-c2c(C#N)c(C(=O)Nc3ccccc3)nn2-c2ccccc2Cl)cc1 [N-phenyl-1-(2-chlorophenyl)-4-cyano-5-(4-methoxyphenyl)-1H-pyrazole-3-carboxamide],,inverse agonist properties
